Data reported in ChEMBL document CHEMBL5257097, “An Isomer of Galidesivir That Potently Inhibits Influenza Viruses and Members of the Bunyavirales Order” (ACS Med Chem Lett, 2023).
pEC50: −log10 of the molar value.

What was measured:
Influenza A virus [1] = assay: Antiviral activity against Influenza A virus H7N9 infected in dog MDCK cells assessed as inhibition of viral replication measured after 15 to 30 mins by visual analysis; format: functional, organism-based
[2] = Cytotoxicity against African green monkey Vero 76 cells infected with La Crosse virus assessed as reduction in cell viability by neutral red dye based analysis; format: toxicity; conditions: chlorocebus sabaeus
Influenza B virus [3] = assay: Antiviral activity against Influenza B virus infected in dog MDCK cells assessed as inhibition of viral replication measured after 15 to 30 mins by visual analysis; format: functional, organism-based
[4] = system: Severe fever with thrombocytopenia syndrome virus; assay: Antiviral activity against Severe fever with thrombocytopenia syndrome virus infected in African green monkey Vero E6 cells assessed as reduction in viral yield measured for 3 days; format: functional; conditions: Vero C1008, 72 h, time 3 day
[5] = Cytotoxicity against African green monkey Vero E6 cells infected with Heartland virus assessed as reduction in cell viability; format: toxicity, cell-based, Vero C1008; conditions: chlorocebus sabaeus
Junin virus [6] = assay: Antiviral activity against Junin virus infected in African green monkey Vero E6 cells assessed as inhibition of viral replication by visual analysis; format: functional, organism-based; conditions: Mammarenavirus juninense, Vero C1008
[7] = Cytotoxicity against dog MDCK cells infected with Influenza A virus H3N2 assessed as reduction in cell viability by visual analysis; format: toxicity, cell-based, Canis lupus familiaris
Oropouche virus = assay: Antiviral activity against Oro-pouche virus infected in African green monkey Vero E6 cells assessed as inhibition of viral replication by neutral red dye based analysis; format: functional, organism-based; conditions: Vero C1008
Influenza A virus [8] = assay: Antiviral activity against Influenza A virus H1N1 infected in dog MDCK cells assessed as inhibition of viral replication measured after 15 to 30 mins by neutral red dye based analysis; format: functional, organism-based
[9] = (§1) Selectivity index, ratio of CC50 for cytotoxicity against African green monkey Vero cells infected with Tacaribe virus assessed as reduction in cell viability by neutral red dye based analysis to EC50 for antiviral activity against Tacaribe virus infected in African green monkey Vero cells assessed as reduction in viral replication by neutral red dye based analysis; format: toxicity; conditions: read-out: Ratio CC50/EC50
[10] = as §1, with “JUNV” for “Tacaribe virus”, “visual” for “neutral red dye based”; format: toxicity, cell-based; conditions: read-out: Ratio CC50/EC50
[11] = as §1, with “Vero 76” for “Vero”, “Punta Toro” for “Tacaribe”, “visual” for “neutral red dye based”; format: toxicity, cell-based; conditions: read-out: Ratio CC50/EC50
[12] = (§2) Selectivity index, ratio of CC50 for cytotoxicity against African green monkey Vero E6 cells infected with Heartland virus assessed as reduction in cell viability to EC90 for antiviral activity against Heartland virus infected in African green monkey Vero E6 cells assessed as reduction in viral yield; format: toxicity, cell-based, Vero C1008
[13] = as §1, with “JUNV” for “Tacaribe virus”; format: toxicity; conditions: read-out: Ratio CC50/EC50
[14] = Toxicity in BALB/c mouse infected with A/Ca/04/09 (H1N1) assessed as animal survival at 10 to 300 mg/kg, ip administered twice a day for 5 days; format: organism-based; conditions: in vivo, 120 h, dose 10-300 mg/kg, time 5 day
Influenza B virus [15] = assay: Antiviral activity against Influenza B virus infected in dog MDCK cells assessed as reduction in virus yield measured after 3 days by visual analysis; format: functional; conditions: 72 h, time 3 day
[16] = (§3) Selectivity index, ratio of CC50 for cytotoxicity against dog MDCK cells infected with Influenza A virus H1N1 assessed as reduction in cell viability by neutral red dye based analysis to EC50 for antiviral activity against Influenza A virus H1N1 infected in dog MDCK cells assessed as inhibition of viral replication by neutral red dye based analysis; format: toxicity; conditions: read-out: Ratio CC50/EC50
[17] = as §3, with “visual” for “neutral red dye based”; format: toxicity, cell-based; conditions: read-out: Ratio CC50/EC50
[18] = as §3, with “H3N2” for “H1N1”; format: toxicity; conditions: read-out: Ratio CC50/EC50
[19] = as §1, with “Vero E6” for “Vero”, “Oropouche” for “Tacaribe”, “visual” for “neutral red dye based”; format: toxicity, cell-based, Vero C1008; conditions: read-out: Ratio CC50/EC50
[20] = as §1, with “Pichinde” for “Tacaribe”, “visual” for “neutral red dye based”; format: toxicity, cell-based; conditions: read-out: Ratio CC50/EC50
[21] = Cytotoxicity against African green monkey Vero E6 cells infected with Oropouche virus assessed as reduction in cell viability by visual analysis; format: toxicity, cell-based, Vero C1008; conditions: chlorocebus sabaeus
Tacaribe virus = assay: Antiviral activity against Tacaribe virus infected in African green monkey Vero cells assessed as inhibition of viral replication by neutral red dye based analysis; format: functional, organism-based; conditions: Mammarenavirus tacaribeense
Pichinde virus = assay: Antiviral activity against Pichinde virus infected in African green monkey Vero cells assessed as inhibition of viral replication by visual analysis; format: functional, organism-based
[22] = as §2, with “76” for “E6”, “Rift Valley fever” for “Heartland”; format: toxicity, cell-based
[23] = as §1, with “visual” for “neutral red dye based”; format: toxicity, cell-based; conditions: read-out: Ratio CC50/EC50
[24] = Cytotoxicity against dog MDCK cells infected with Influenza A virus H7N9 assessed as reduction in cell viability by neutral red dye based analysis; format: toxicity, Canis lupus familiaris
[25] = Cytotoxicity against African green monkey Vero 76 cells infected with Punta Toro virus assessed as reduction in cell viability by visual analysis; format: toxicity, cell-based; conditions: chlorocebus sabaeus
Junin virus [26] = assay: Antiviral activity against Junin virus infected in African green monkey Vero E6 cells assessed as inhibition of viral replication by neutral red dye based analysis; format: functional, organism-based; conditions: Mammarenavirus juninense, Vero C1008
[27] = Cytotoxicity against African green monkey Vero cells infected with Tacaribe virus assessed as reduction in cell viability by neutral red dye based analysis; format: toxicity; conditions: chlorocebus sabaeus
[28] = Cytotoxicity against dog MDCK cells infected with Influenza A virus H7N9 assessed as reduction in cell viability by visual analysis; format: toxicity, cell-based, Canis lupus familiaris
[29] = Selectivity index, ratio of CC50 for cytotoxicity against dog MDCK cells infected with Influenza B virus assessed as reduction in cell viability by neutral dye based analysis to EC50 for antiviral activity against Influenza B virus infected in dog MDCK cells assessed as inhibition of viral replication by neutral red dye based analysis; format: toxicity; conditions: read-out: Ratio CC50/EC50
[30] = Cytotoxicity against African green monkey Vero E6 cells infected with JUNV assessed as reduction in cell viability by visual analysis; format: toxicity, cell-based, Vero C1008; conditions: chlorocebus sabaeus
[31] = Cytotoxicity against dog MDCK cells infected with Influenza A virus H3N2 assessed as reduction in cell viability by neutral red dye based analysis; format: toxicity, Canis lupus familiaris
[32] = as §1, with “vervet” for “African green”, “MA-104” for “Vero”, “MERS-CoV” for “Tacaribe virus”, “virus-induced cytopathic effect” for “viral replication”; format: toxicity; conditions: read-out: Ratio CC50/EC50
[33] = Cytotoxicity against vervet monkey MA-104 cells infected with MERS-CoV assessed as reduction in cell viability by visual assay; format: toxicity, cell-based; conditions: cercopithecus pygerythrus
Measles morbillivirus = assay: Antiviral activity against Measles virus infected in African green monkey Vero cells assessed as reduction in viral cytopathic effect; format: functional, organism-based
[34] = Cytotoxicity against African green monkey Vero cells infected with DENV-2 assessed as reduction in cell viability by visual assay; format: toxicity, cell-based; conditions: chlorocebus sabaeus
Sudan ebolavirus = assay: Antiviral activity against SUDV infected in human HeLa cells assessed as reduction in viral cytopathic effect; format: functional, organism-based
Ebolavirus = assay: Antiviral activity against Ebola virus infected in human HeLa cells assessed as reduction in viral cytopathic effect; format: functional, organism-based; conditions: Orthoebolavirus
[35] = Cytotoxicity against African green monkey Vero cells infected with DENV-2 assessed as reduction in cell viability by neutral red dye based assay; format: toxicity; conditions: chlorocebus sabaeus

Q: With `Nc1ncnn2c([C@@H]3N[C@H](CO)[C@@H](O)[C@H]3O)ccc12` as the compound, how does the pEC50 (Influenza A virus [1]) read?
A: The pEC50 was 6.38.

Q: What about the CC50 [2] of the same compound?
A: The CC50 was 24 µM.

Q: What about the pEC50 (Influenza B virus [3]) of the same compound?
A: Its pEC50 is 6.49.

Q: What about the EC90 [4] of the same compound?
A: Its EC90 is 220 nM.

Q: What about the CC50 [5] of the same compound?
A: Its CC50 is 13 µM.

Q: And the pEC50 (Junin virus [6])?
A: The pEC50 was 6.27.

Q: What about the CC50 [7] of the same compound?
A: The CC50 was 12 µM.

Q: What about the pEC50 (Oropouche virus) of the same compound?
A: Its pEC50 is 6.70.

Q: And the pEC50 (Influenza A virus [8])?
A: The pEC50 was 6.49.

Q: What about the selectivity ratio [9] of the same compound?
A: Its selectivity ratio is 20.

Q: And the selectivity ratio [10]?
A: The selectivity ratio was 22.

Q: And the selectivity ratio [11]?
A: Its selectivity ratio is 41.

Q: What about the selectivity ratio [12] of the same compound?
A: Its selectivity ratio is 97.

Q: And the selectivity ratio [13]?
A: The selectivity ratio was 34.

Q: What about the Activity [14] of the same compound?
A: Its Activity is “Non-Toxic”.

Q: And the EC90 (Influenza B virus [15])?
A: The EC90 was 300 nM.

Q: What about the selectivity ratio [16] of the same compound?
A: Its selectivity ratio is 44.

Q: What about the selectivity ratio [17] of the same compound?
A: The selectivity ratio was 41.

Q: What about the selectivity ratio [18] of the same compound?
A: The selectivity ratio was 44.

Q: What about the selectivity ratio [19] of the same compound?
A: Its selectivity ratio is 62.

Q: And the selectivity ratio [20]?
A: Its selectivity ratio is 42.

Q: And the CC50 [21]?
A: The CC50 was 24 µM.

Q: And the pEC50 (Tacaribe virus)?
A: The pEC50 was 6.48.

Q: What about the pEC50 (Pichinde virus) of the same compound?
A: The pEC50 was 6.42.

Q: What about the selectivity ratio [22] of the same compound?
A: The selectivity ratio was 78.

Q: What about the selectivity ratio [23] of the same compound?
A: Its selectivity ratio is 32.

Q: And the CC50 [24]?
A: Its CC50 is 30 µM.

Q: What about the CC50 [25] of the same compound?
A: The CC50 was 13 µM.

Q: What about the pEC50 (Junin virus [26]) of the same compound?
A: The pEC50 was 6.55.

Q: What about the CC50 [27] of the same compound?
A: The CC50 was 6.6 µM.

Q: And the CC50 [28]?
A: The CC50 was 32 µM.

Q: And the selectivity ratio [29]?
A: Its selectivity ratio is 38.

Q: What about the CC50 [30] of the same compound?
A: Its CC50 is 12 µM.

Q: And the CC50 [31]?
A: Its CC50 is 10 µM.

Q: For `Nc1ncnc2c([C@@H]3N[C@H](CO)[C@@H](O)[C@H]3O)c[nH]c12` [GALIDESIVIR], which selectivity ratio [32] is on record?
A: The selectivity ratio was over 3.1.

Q: What about the CC50 [33] of the same compound?
A: The CC50 was over 100 µM.

Q: And the pEC50 (Measles morbillivirus)?
A: The pEC50 was 5.74.

Q: What about the CC50 [34] of the same compound?
A: Its CC50 is over 100 µM.

Q: What about the pEC50 (Sudan ebolavirus) of the same compound?
A: The pEC50 was 5.52.

Q: What about the pEC50 (Ebolavirus) of the same compound?
A: Its pEC50 is 5.52.

Q: And the CC50 [35]?
A: The CC50 was over 100 µM.
